Assay results from PMC2151269, “Broad phase II and pharmacokinetic study of methoxy-morpholino doxorubicin (FCE 23762-MMRDX) in non-small-cell lung cancer, renal cancer and other solid tumour patients” (British Journal of Cancer, 1998).
Values joined by “and” are separate entries in the source; they are usually repeats but may differ in a detail not shown here. Equal entries are not always repeated.

Assays:
[1] = test system: metastatic or unresectable solid tumour patients; test: Haematological toxicity (CTC grading, blood cell counts) in broad phase II study; type: in vivo, human; settings: for Cycles (%) with anaemia / Cycles (%) with leucopenia / Cycles (%) with neutropenia / Cycles (%) with thrombocytopenia: n = 126 cycles; for Median platelet nadir: 26 patients who received at least three cycles
From the text: (§1) British Jourmal of Cancer (1998) 77(1), 139-146 ? 1998 Cancer Research Campaign Broad phase 11 and pharmacokinetic study of methoxy-morpholino doxorubicin (FCE 23762-MMRDX) in non-small-cell lung cancer, renal cancer and other solid tumour patients M Bakker', JP Droz2, AR Hanauske3, J Verweij4, AT van Oosterom5, HJM Groen', MA Pacciarini6, L Domenigoni6, F van Weissenbruch', E Pianezzola6 and EGE de Vries' 'University Hospital Groningen, The Netherlands; 2Centre L6on Berard, Lyon, France; 3Med. […] Patients received a maximum of six cycles. […] Limitations of the clinical value of anthracyclines are their toxicity profile, especially irreversible, dose-related cardiotoxicity, and intrinsic or acquired tumour resis- tance. Various mechanisms play a role in tumour cell resistance to anthracyclines, including overexpression of drug efflux pumps such as P-glycoprotein, decreased levels of the target enzyme topoisomerase II, and an increase in cellular detoxifying capacity (Kaye and Merry, 1985; Deffie et al, 1989; De Jong et al, 1990; Ford and Hait, 1990; Meijer et al, 1990; Zaman et al, 1994). The morpholinyl anthracyclines have been developed in the course of research aimed at identifying new anthracyclines with at least partially novel modes of action in addition to activity against resis- tant tumours (Acton et al, 1984). […] Box 30.001, 9700 RB Groningen, The Netherlands (Figure 1).

[2] = Urinary excretion up to 96 h; type: in vivo, human
From the text: as §1

[3] = test system: NSCLC, renal cell cancer, head and neck cancer, cervix carcinoma, ACUP; test: Tumour response according to WHO criteria; type: in vivo, human
From the text: as §1

[4] = test system: metastatic or unresectable solid tumour patients; test: Non-haematological toxicity (CTC grading) in broad phase II study; type: in vivo, human; settings: for Percentage of cycles with alopecia / Percentage of cycles with diarrhoea / Percentage of cycles with fatigue/malaise / Percentage of cycles with liver toxicity, ALAT / Percentage of cycles with liver toxicity, ASAT / Percentage of cycles with nausea / Percentage of cycles with stomatitis / Percentage of cycles with vomiting / Percentage of cycles with liver toxicity, bilirubin: 132 evaluable cycles
From the text: as §1

[5] = Plasma pharmacokinetics, cycle 1 (HPLC with fluorescence detection); type: in vivo, human
From the text: as §1

[6] = test system: left ventricular ejection fraction (LVEF); test: Cardiac toxicity: LVEF by MUGA scan or echocardiography; type: in vivo, human
From the text: as §1

[7] = test system: solid tumours in animal models; design: method as in Grandi et al, 1990; Ripamonti et al, 1992; settings: similar activity by intraperitoneal, i.v. or oral route; ref Grandi et al, 1990; Ripamonti et al, 1992; cited from earlier work
[8] = 132 cycles, 48 patients, 1.5 mg m-2 i.v. bolus every 4 weeks
[9] = CTC Grade I, 1.5 mg m-2 i.v. bolus every 4 weeks
[10] = CTC Grade II, 1.5 mg m-2 i.v. bolus every 4 weeks
[11] = CTC Grade III, 1.5 mg m-2 i.v. bolus every 4 weeks
[12] = CTC Grade IV, 1.5 mg m-2 i.v. bolus every 4 weeks
[13] = out of 131 cycles, despite intensive prophylactic antiemetic treatment
[14] = plasma, three-compartmental model, first cycle, 11 patients, 1.5 mg m-2 i.v.

COc1cccc2c1C(=O)c1c(O)c3c(c(O)c1C2=O)C[C@@](O)(C(=O)CO)C[C@@H]3O[C@H]1C[C@H](N2CCO[C@H](OC)C2)[C@H](O)[C@H](C)O1 [MMRDX, methoxymorpholino-doxorubicin]
Patients hospitalized for neutropenic fever ([1]; 47 patients evaluable for haematological toxicity): Seven | CTC grade III/IV neutropenia, % of cycles [1, 8]: 27% | CTC grade III/IV thrombocytopenia, % of cycles [1, 8]: 12% | Cycles (%) with anaemia [1, 9]: 37% | Cycles (%) with leucopenia [1, 9]: 17% | Cycles (%) with neutropenia [1, 9]: 13% | Cycles (%) with thrombocytopenia [1, 9]: 11% | Cycles (%) with anaemia [1, 10]: 31% | Cycles (%) with leucopenia [1, 10]: 23% | Cycles (%) with neutropenia [1, 10]: 20% | Cycles (%) with thrombocytopenia [1, 10]: 6% | Cycles (%) with anaemia [1, 11]: 5% | Cycles (%) with leucopenia [1, 11]: 19% | Cycles (%) with neutropenia [1, 11]: 18% | Cycles (%) with thrombocytopenia [1, 11]: 6% | Cycles (%) with anaemia [1, 12]: 0% | Cycles (%) with leucopenia [1, 12]: 6% | Cycles (%) with neutropenia [1, 12]: 9% | Cycles (%) with thrombocytopenia [1, 12]: 6% | Median (range) nadir haemoglobin ([1]; Cycle 1, n=47): 110(69-147) g l-1 | Median (range) nadir leucocytes ([1]; Cycle 1, n=47): 3.0 (0.1-9.1) x 109 l-1 | Median (range) nadir neutrophils ([1]; Cycle 1, n=47): 1.4 (<0.1-5.8) x 109 l-1 | Median (range) nadir platelets ([1]; Cycle 1, n=47): 178 (8-449) x 109 l-1 | Median (range) nadir platelets ([1]; Cycles 2-6, n=80): 117 (9-372) x 109 l-1 | Median (range) nadir neutrophils ([1]; Cycles 2-6, n=81): 1.7 (< 0.1-6.8) x 109 l-1 | Median (range) nadir haemoglobin ([1]; Cycles 2-6, n=82): 103 (69-153) g l-1 | Median (range) nadir leucocytes ([1]; Cycles 2-6, n=82): 3.0 (0.1-9.8) x 109 l-1 | Median platelet nadir ([1]; cycle 1): 1.78e+11 L⁻¹ | Median platelet nadir ([1]; cycle 2): 1.45e+11 L⁻¹ | Median platelet nadir ([1]; cycle 3): 1.08e+11 L⁻¹ | Median platelet nadir ([1]; cycle 4): 1.06e+11 L⁻¹ | Median platelet nadir ([1]; cycle 5): 9e+10 L⁻¹ | Median platelet nadir ([1]; cycle 6): 1.17e+11 L⁻¹ | Septic death ([1]; day 14 of cycle 2, grade IV neutropenia): one | Day of platelet nadir ([1]; day of cycle): 22 day and 22 (range 7-36) day | Median day of neutrophil nadir ([1]; day of cycle): 22 day and 22 (range 6-36) day | Total number of hospital admissions for haematological toxicity ([1]; excluding admission for blood cell transfusion): eight | Cycles with dose adjustments for haematological toxicity ([1]; in eight patients): 19% | Cycles delayed for haematological toxicity ([1]; in vivo): 29% | Median duration of grade IV neutropenia ([1]; range 1-14): 7 days | Median time to recovery from platelet nadir to > 100 x 109 l-1 ([1]; range 1-20): 7 days | Median time to recovery from neutrophil nadir to > 2 x 109 l-1 ([1]; range 2-22): 7 days | Median duration of grade IV thrombocytopenia ([1]; range 3-19): 11 days | Renal clearance ([2]; in vivo): about 1.8 l h-1 | Urinary excretion of the unchanged drug, % of the administered dose ([2]; urine collection up to 96 h, nine patients): 2% | Efficacy in NSCLC and renal cell cancer ([3]; NSCLC (20 evaluable patients) and renal cell cancer (18 evaluable patients)): ineffective | Patients with partial response ([3]; NSCLC patient with retroperitoneal metastases, forty-three patients evaluable for tumour response): One | Patients with progressive disease ([3]; forty-three patients evaluable): Twenty-five | Patients with stable disease ([3]; forty-three patients evaluable): 17 patients | Duration of partial response ([3]; one NSCLC patient): 17 weeks | Late and prolonged nausea > or = grade II, % of cycles ([4]; 132 cycles): 34% | Vomiting > or = grade II, % of cycles ([4]; 132 cycles): 39% | Cycles with transient elevation of ALAT ([4]; % of cycles): 71% | Cycles with transient elevation of ASAT ([4]; % of cycles): 64% | Percentage of cycles with alopecia ([4]; CTC Grade I): 10% | Percentage of cycles with diarrhoea ([4]; CTC Grade I): 7% | Percentage of cycles with fatigue/malaise ([4]; CTC Grade I): 24% | Percentage of cycles with liver toxicity, ALAT ([4]; CTC Grade I): 37% | Percentage of cycles with liver toxicity, ASAT ([4]; CTC Grade I): 46% | Percentage of cycles with nausea ([4]; CTC Grade I): 43% | Percentage of cycles with stomatitis ([4]; CTC Grade I): 11% | Percentage of cycles with vomiting ([4]; CTC Grade I): 24% | Percentage of cycles with alopecia ([4]; CTC Grade II): 1.5% | Percentage of cycles with diarrhoea ([4]; CTC Grade II): 1% | Percentage of cycles with fatigue/malaise ([4]; CTC Grade II): 22% | Percentage of cycles with liver toxicity, ALAT ([4]; CTC Grade II): 27% | Percentage of cycles with liver toxicity, ASAT ([4]; CTC Grade II): 16% | Percentage of cycles with liver toxicity, bilirubin ([4]; CTC Grade II): 12% | Percentage of cycles with nausea ([4]; CTC Grade II): 27% | Percentage of cycles with stomatitis ([4]; CTC Grade II): 1% | Percentage of cycles with vomiting ([4]; CTC Grade II): 30% | Percentage of cycles with diarrhoea ([4]; CTC Grade III): 1% | Percentage of cycles with fatigue/malaise ([4]; CTC Grade III): 7% | Percentage of cycles with liver toxicity, ALAT ([4]; CTC Grade III): 7% | Percentage of cycles with liver toxicity, ASAT ([4]; CTC Grade III): 2% | Percentage of cycles with liver toxicity, bilirubin ([4]; CTC Grade III): 0% | Percentage of cycles with nausea ([4]; CTC Grade III): 7% | Percentage of cycles with stomatitis ([4]; CTC Grade III): 1% | Percentage of cycles with vomiting ([4]; CTC Grade III): 4% | Percentage of cycles with diarrhoea ([4]; CTC Grade IV): 0% | Percentage of cycles with fatigue/malaise ([4]; CTC Grade IV): 5% | Percentage of cycles with liver toxicity, ALAT ([4]; CTC Grade IV): 0% | Percentage of cycles with liver toxicity, ASAT ([4]; CTC Grade IV): 0% | Percentage of cycles with liver toxicity, bilirubin ([4]; CTC Grade IV): 1% | Percentage of cycles with stomatitis ([4]; CTC Grade IV): 0% | Percentage of cycles with vomiting ([4]; CTC Grade IV): 5% | Fatigue grade I-III, % of cycles ([4]; considered as drug-related): 53% | Alopecia grade I or II, % of cycles ([4]; in vivo): 11% | Cumulative liver toxicity ([4]; in vivo): No cumulative liver toxicity was observed | Cycles with CTC toxicity >= grade I of ALAT ([4]; in vivo): 87 cycles | Cycles with CTC toxicity >= grade I of ASAT ([4]; in vivo): 78 cycles | Cycles with CTC toxicity >= grade I of bilirubin ([4]; in vivo): 15 cycles | Cycles with CTC toxicity >= grade III of ALAT ([4]; in vivo): nine | Cycles with CTC toxicity >= grade III of ASAT ([4]; in vivo): two | Cycles with CTC toxicity >= grade III of bilirubin ([4]; in vivo): one | Grade I-II diarrhoea, % of cycles ([4]; in vivo): 8% | Grade I-II stomatitis, % of cycles ([4]; in vivo): 11% | Local phlebitis at the injection site, renal toxicity, neurotoxicity ([4]; in vivo): Neither local phlebitis at the injection site nor renal or neuro- toxicity were observed | Median day of onset of nausea ([4]; in vivo): 3 (range 1-17) day | Median day of onset of vomiting ([4]; in vivo): 3 (range 1-22) day | Patients hospitalized for nausea/vomiting ([4]; in vivo): Five | Nausea and vomiting grade III-IV, % of cycles ([4]; in vivo, iv): 9% | Day of maximum transient elevations of ASAT and ALAT ([4]; lasting approximately one week): 8 days | Patients with alopecia grade I or II ([4]; only one grade II): Nine | Cycles with nausea [4, 13]: 100 cycles | Cycles with vomiting [4, 13]: 82 cycles | Transient transaminases elevation grade III/IV, % of cycles ([4]; printed '> grade III/IV', 132 cycles): 7% | Median hospitalization duration for nausea/vomiting ([4]; range 1-7): 4 days | Median duration of vomiting ([4]; range 1-28): 3 days | Median duration of nausea ([4]; range 1-38): 7 days | Median day of recovery of ASAT to normal values ([4]; range 8-26): 15 days | Median day of recovery of ALAT to normal values ([4]; range 8-36): 15 days | Terminal half-life relative to epirubicin t1/2,z ([5]; epirubicin value ref Camaggi et al, 1988): 1.6 fold | Interindividual coefficient of variation ([5]; on the basis of AUC calculated up to infinite time): about 20% | Plasma clearance, mean ± s.d. ([5]; plasma, 11 patients, 1.5 mg m-2 i.v.): 37.2 +/- 7.3 l h-1 m-2 | AUC0-infinity, mean ± s.d. ([5]; plasma, n = 11, 1.5 mg m-2 i.v., linear trapezoidal rule): 0.0204 ± 0.0062 µg·h/mL | Half-life of the first phase ([5]; plasma, three-compartmental model, 11 patients, 1.5 mg m-2 i.v.): 4 min | t1/2,beta (second phase), mean ± s.d. [5, 14]: 2.4 h | t1/2,gamma (third phase), mean ± s.d. [5, 14]: 49 h | Patients with left ventricular ejection fraction reduced >= 15% ([6]; 26 patients evaluable for cardiac toxicity): two | Decrease in LVEF ([6]; one patient with head and neck cancer, after three cycles, cumulative dose 4.5 mg m-2): 15% | Cardiotoxicity ([6]; overall conclusion of the study): No clear signs of cardiotoxicity were observed | Decrease in LVEF ([6]; second patient (NSCLC), echocardiography, after four cycles, cumulative dose 6 mg m-2): 17% | Effectiveness in solid tumours in animal models [7]: as effective as doxorubicin
